The record followed here is US20090023704A1, “Novel Compounds 737” (ASTRAZENECA AB, priority 2007, published 2009).

The target of the assay is T1, GABAB receptor (GABABR1a/GABABR2 heterodimer) (Homo sapiens, UniProt O75899+Q9UBS5).
T1 construct: expressed in transfected cells
Put plainly: [35S]-GTPγS binding assay, potency of PAM (GABA dose-response curves with and without test compound). Format: biochemical. The following applies: potency of the positive allosteric modulator; GABA dose-response in presence of test compound. An excerpt:
GABABR1a and GABABR2 were cloned from human brain cDNA and subcloned into pCI-Neo (Promega) and pALTER-1 (Promega), respectively. A GABABR1a-Gαqi5 fusion protein expression vector was constructed using the pCI-Neo-GABABR1a cDNA plasmid and pLEC1-Gαqi5 (Molecular Devices, CA). In order to make the Gαqi5 pertussis toxin insensitive, Cys356 was mutated to Gly using standard PCR methodology with the primers 5′-[…]-3′ (forward) and 5′-GCGGCCG […]-3′ (reverse). The Gαqi5mut cDNA was ligated into the BamHI and NotI sites of pcDNA3.0 (Invitrogen). The GABAB R1a coding sequence was amplified by PCR from pCI-Neo-GABABR1a using the primers, 5′-[…]-3′ (forward) and 5′-[…]-3′ (reverse) and subcloned into the BamHI site of pcDNA3.0-Gαqi5mut.
For generation of a cell line expressing the GABABR1a/GABABR2 heterodimer, GABABR1a plasmid DNA (4 μg) GABABR2 plasmid DNA (4 μg) and lipofectamine (24 μl) were mixed in 5 ml OptiMEM and incubated for 45 minutes at room temperature. The cells were exposed to the transfection medium for 5 hours, which then was replaced with culture medium. The cells were cultured for an additional 10 days before selection agents (300 μg/ml hygromycin and 400 μg/ml geneticin) were added. Twenty-four days after transfection, single cell sorting into 96-well plates by flow cytometry was performed using a FACS Vantage SE (Becton Dickinson, Palo Alto, Calif.). After expansion, the GABAB receptor functional response was tested using the FLIPR assay described below. The clone with the highest functional response was collected, expanded and then subcloned by single cell sorting. The clonal cell line with the highest peak response in the FLIPR was used in the present study.
For generation of a stable cell line expressing GABABR1a-Gαqi5 fusion protein and GABABR2, GABABR1a-Gαqi5mut plasmid DNA (8 μg) GABABR2 plasmid DNA (8 μg) and lipofectamine (24 μl) were mixed in 5 ml OptiMEM and incubated for 45 minutes at room temperature. The cells were exposed to the transfection medium for 5 hours, which then was replaced with culture medium. After forty-eight hours, the cells were detached and seeded in 6 well plates (2000 cells/well) and grown in culture medium supplemented with geneticin (400 μg/ml) and zeocin (250 μg/ml). After 4 days, cells from single colonies were collected and transferred to a 24-well plate. After 10 days, the cell clones were seeded in T-25 flasks and grown for another 16 days before they were tested for GABAB receptor mediated functional response. […] The clonal cell line that gave the highest peak response in the FLIPR was used in the present study.
[^35S]-GTPγS binding assays were performed at 30° C. for 45 min in membrane buffer (100 mM NaCl, 5 mM MgCl2, 1 mM EDTA, 50 mM HEPES, pH 7.4) containing 0.025 μg/μl of membrane protein (prepared from the cell lines described above) with 0.01% bovine serum albumin (fatty acid free), 10 μM GDP, 10 μM DTT and 0.53 nM [^35S]-GTPγS (Amersham-Pharmacia Biotech) in a final volume of 200 μl. Non-specific binding was determined in the presence of 20 μM GTPγS. The reaction was started by the addition of GABA at concentration between 1 mM and 0.1 nM in the presence or absence of the required concentration of PAM. The reaction was terminated by addition of ice-cold wash buffer (50 mM Tris-HCl, 5 mM MgCl2, 50 mM NaCl, pH 7.4) followed by rapid filtration under vacuum through Printed Filtermat A glass fiber filters (Wallac) (0.05% PEI treated) using a Micro 96 Harvester (Skatron Instruments). The filters were dried for 30 min at 50° C., then a paraffin scintillant pad was melted onto the filters and the bound radioactivity was determined using a 1450 Microbeta Trilux (Wallac) scintillation counter.
GABA dose-response curves in the presence and absence of test compounds were constructed using the 4-parameter logistic equation, y=ymax+((ymin−ymax)/1+(x/C)^D), where C=EC50 and D=slope factor.
In general terms: GTPγS is a poorly hydrolysed GTP analogue; its binding reports G protein activation.

T1 sequence (Q9UBS5 15-961 limits assumed): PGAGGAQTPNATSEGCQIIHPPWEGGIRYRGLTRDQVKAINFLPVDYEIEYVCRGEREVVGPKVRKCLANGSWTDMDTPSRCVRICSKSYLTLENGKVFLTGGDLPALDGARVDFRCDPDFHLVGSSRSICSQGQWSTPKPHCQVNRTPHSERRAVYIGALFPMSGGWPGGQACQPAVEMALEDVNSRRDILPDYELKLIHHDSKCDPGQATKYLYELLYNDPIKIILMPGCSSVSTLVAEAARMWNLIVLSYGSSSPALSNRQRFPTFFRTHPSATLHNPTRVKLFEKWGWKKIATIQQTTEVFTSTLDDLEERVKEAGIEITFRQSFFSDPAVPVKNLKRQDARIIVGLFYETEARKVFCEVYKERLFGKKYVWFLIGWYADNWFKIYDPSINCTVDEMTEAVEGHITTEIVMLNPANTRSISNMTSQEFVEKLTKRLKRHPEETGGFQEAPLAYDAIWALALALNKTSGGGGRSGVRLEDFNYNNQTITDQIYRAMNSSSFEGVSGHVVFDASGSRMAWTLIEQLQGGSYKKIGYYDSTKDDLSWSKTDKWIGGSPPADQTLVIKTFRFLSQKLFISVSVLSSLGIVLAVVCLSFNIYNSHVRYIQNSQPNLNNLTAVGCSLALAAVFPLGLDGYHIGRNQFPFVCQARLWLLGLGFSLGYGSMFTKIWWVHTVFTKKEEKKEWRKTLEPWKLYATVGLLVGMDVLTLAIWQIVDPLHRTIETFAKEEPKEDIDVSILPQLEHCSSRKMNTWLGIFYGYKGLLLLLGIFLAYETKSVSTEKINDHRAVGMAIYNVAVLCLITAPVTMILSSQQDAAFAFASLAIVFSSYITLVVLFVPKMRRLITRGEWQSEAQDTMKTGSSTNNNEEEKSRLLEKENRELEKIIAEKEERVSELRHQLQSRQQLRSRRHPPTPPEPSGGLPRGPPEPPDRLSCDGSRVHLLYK
T1 sequence (O75899 42-941): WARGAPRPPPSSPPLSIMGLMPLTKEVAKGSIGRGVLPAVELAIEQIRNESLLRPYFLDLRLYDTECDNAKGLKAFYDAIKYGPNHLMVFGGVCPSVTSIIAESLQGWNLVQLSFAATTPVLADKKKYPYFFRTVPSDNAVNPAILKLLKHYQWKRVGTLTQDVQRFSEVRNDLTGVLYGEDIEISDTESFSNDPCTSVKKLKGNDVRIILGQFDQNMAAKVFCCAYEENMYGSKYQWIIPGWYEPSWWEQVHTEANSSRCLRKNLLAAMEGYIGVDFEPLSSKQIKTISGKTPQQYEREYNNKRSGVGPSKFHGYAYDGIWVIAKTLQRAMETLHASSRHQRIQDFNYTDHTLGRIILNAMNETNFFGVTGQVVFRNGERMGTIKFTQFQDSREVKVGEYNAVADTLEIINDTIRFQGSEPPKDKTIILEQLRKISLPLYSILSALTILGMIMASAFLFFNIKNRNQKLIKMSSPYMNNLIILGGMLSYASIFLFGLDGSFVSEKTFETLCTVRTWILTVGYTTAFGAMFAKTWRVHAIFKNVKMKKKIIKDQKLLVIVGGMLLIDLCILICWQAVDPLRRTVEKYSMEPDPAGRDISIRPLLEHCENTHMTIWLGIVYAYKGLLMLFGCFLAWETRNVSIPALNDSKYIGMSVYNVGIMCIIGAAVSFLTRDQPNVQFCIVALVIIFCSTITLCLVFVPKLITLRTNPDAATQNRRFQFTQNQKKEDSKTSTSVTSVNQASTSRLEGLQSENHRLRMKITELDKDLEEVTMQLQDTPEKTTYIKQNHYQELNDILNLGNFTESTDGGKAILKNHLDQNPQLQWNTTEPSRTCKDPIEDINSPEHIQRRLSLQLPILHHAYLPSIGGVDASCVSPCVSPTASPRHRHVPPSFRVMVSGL

As a reminder, the EC50 is the concentration giving half of the maximal effect. Take `CCCn1c(=O)n(Cc2ccc3ccccc3c2)c(=O)c2c1nc(CC)n2C` [Example 58, 8-Ethyl-7-methyl-1-(2-naphthylmethyl)-3-propyl-3,7-dihydro-1H-purine-2,6-dione]: the EC50 was determined as 2.7 µM. Regarding `CCCn1c(=O)n(Cc2cnn(-c3ccc(Cl)cc3)c2C(F)(F)F)c(=O)c2c1nc(CC)n2C` [Example 59, 1-{[1-(4-Chlorophenyl)-5-(trifluoromethyl)-1H-pyrazol-4-yl]methyl}-8-ethyl-7-methyl-3-propyl-3,7-dihydro-1H-purine-2,6-dione], the EC50 is 5.9 µM. Take `CCCn1c(=O)n(Cc2ccc(Cl)cc2Cl)c(=O)c2c1nc(CC)n2C` [Example 60, 1-(2,4-Dichlorobenzyl)-8-ethyl-7-methyl-3-propyl-3,7-dihydro-1H-purine-2,6-dione]: the EC50 stood at 17.2 µM. Consider `CCCn1c(=O)n(Cc2ccc(Br)cc2)c(=O)c2c1nc(CC)n2C` [Example 61, 1-(4-Bromobenzyl)-8-ethyl-7-methyl-3-propyl-3,7-dihydro-1H-purine-2,6-dione], for which the EC50 turned out to be 4.2 µM. For the compound `CCCn1c(=O)n(Cc2ccc(C(F)(F)F)cc2)c(=O)c2c1nc(CC)n2C` [Example 62, 8-Ethyl-7-methyl-3-propyl-1-[4-(trifluoromethyl)benzyl]-3,7-dihydro-1H-purine-2,6-dione], the EC50 was 5.7 µM. For `CCCn1c(=O)n(CCc2ccc(Cl)cc2)c(=O)c2c1nc(CC)n2C` [Example 63, 1-[2-(4-Chlorophenyl)ethyl]-8-ethyl-7-methyl-3-propyl-3,7-dihydro-1H-purine-2,6-dione], the EC50 turned out to be 13.8 µM. As for `CCCn1c(=O)n(Cc2ccc3nsnc3c2)c(=O)c2c1nc(CC)n2C` [Example 64, 1-(2,1,3-Benzothiadiazol-5-ylmethyl)-8-ethyl-7-methyl-3-propyl-3,7-dihydro-1H-purine-2,6-dione], the EC50 is 11.1 µM.

`CCCn1c(=O)n(Cc2nc3cc(C(F)(F)F)ccc3s2)c(=O)c2c1nc(CC)n2C` [Example 66, 8-Ethyl-7-methyl-3-propyl-1-{[5-(trifluoromethyl)-1,3-benzothiazol-2-yl]methyl}-3,7-dihydro-1H-purine-2,6-dione]: the EC50 amounted to 17.3 µM. Take `CCCn1c(=O)n(Cc2cccc(Cl)c2)c(=O)c2c1nc(CC)n2C` [Example 67, 1-(3-Chlorobenzyl)-8-ethyl-7-methyl-3-propyl-3,7-dihydro-1H-purine-2,6-dione]: the EC50 stood at 15.1 µM. For the compound `CCCn1c(=O)n(Cc2ccc(C(=O)c3ccccc3)cc2)c(=O)c2c1nc(CC)n2C` [Example 68, 1-(4-Benzoylbenzyl)-8-ethyl-7-methyl-3-propyl-3,7-dihydro-1H-purine-2,6-dione], the EC50 turned out to be 15.7 µM. The value for `CCCn1c(=O)n(Cc2ccc(OC)cc2)c(=O)c2c1nc(CC)n2C` [Example 69, 8-Ethyl-1-(4-methoxybenzyl)-7-methyl-3-propyl-3,7-dihydro-1H-purine-2,6-dione] was 19.7 µM. Take `CCCn1c(=O)n(Cc2ccc(C(C)C)cc2)c(=O)c2c1nc(CC)n2C` [Example 70, 8-Ethyl-1-(4-isopropylbenzyl)-7-methyl-3-propyl-3,7-dihydro-1H-purine-2,6-dione]: the EC50 was 6.1 µM. The value for `CCc1nc2c(c(=O)n(Cc3ccc(Cl)cc3)c(=O)n2Cc2ccc(OC)cc2OC)n1C` [Example 71, 1-(4-Chlorobenzyl)-3-(2,4-dimethoxybenzyl)-8-ethyl-7-methyl-3,7-dihydro-1H-purine-2,6-dione] was 11.3 µM; that for `CCCn1c(=O)n(Cc2ccc(Cl)cc2)c(=O)c2c1nc(CC)n2CC` [Example 72, 1-(4-Chlorobenzyl)-7,8-diethyl-3-propyl-3,7-dihydro-H-purine-2,6-dione] was 8.93 µM. For `CCCn1c(=O)n(Cc2ccc(Cl)cc2)c(=O)c2c1nc(CC)n2-c1ccc(F)cc1` [Example 74, 1-(4-Chlorobenzyl)-8-ethyl-7-(4-fluorophenyl)-3-propyl-3,7-dihydro-1H-purine-2,6-dione], the EC50 came to 9.9 µM.

`CCc1nc2c(c(=O)n(Cc3ccc(Cl)cc3)c(=O)n2CCC(F)(F)F)n1C` [Example 75]: the EC50 is 3.5 µM. The value for `CCc1nc2c(c(=O)n(Cc3ccc(Cl)cc3)c(=O)n2CCCC(F)(F)F)n1C` [Example 76] was 4.9 µM. `CCn1c(=O)n(Cc2ccc(Cl)cc2)c(=O)c2c1nc(OC)n2-c1ccc(F)cc1` [Example 77, 1-(4-chlorobenzyl)-3-ethyl-7-(4-fluorophenyl)-8-methoxy-3,7-dihydro-1H-purine-2,6-dione]: the EC50 turned out to be 6.64 µM. `CCCn1c(=O)n(Cc2ccc(Cl)cc2)c(=O)c2c1nc(OC)n2C` [Example 78, 1-(4-Chlorobenzyl)-8-methoxy-7-methyl-3-propyl-3,7-dihydro-1H-purine-2,6-dione]: the EC50 was found to be 4.5 µM. Regarding `CCCn1c(=O)n(Cc2ccc(F)cc2)c(=O)c2c1nc(OC)n2C` [Example 79, 1-(4-Fluorobenzyl)-8-methoxy-7-methyl-3-propyl-3,7-dihydro-1H-purine-2,6-dione], the EC50 was 14.5 µM. As to `COc1nc2c(c(=O)n(Cc3ccc(Cl)cc3)c(=O)n2CCC(F)(F)F)n1C` [Example 80, 1-(4-chlorobenzyl)-8-methoxy-7-methyl-3-(3,3,3-trifluoropropyl)-3,7-dihydro-1H-purine-2,6-dione], the EC50 was 5.2 µM.

`COc1nc2c(c(=O)n(Cc3ccc(Cl)cc3)c(=O)n2CCCC(F)(F)F)n1C` [Example 81, 1-(4-chlorobenzyl)-8-methoxy-7-methyl-3-(4,4,4-trifluorobutyl)-3,7-dihydro-1H-purine-2,6-dione]: the EC50 is 11.5 µM. Regarding `CCCn1c(=O)n(Cc2ccc(Cl)cc2)c(=O)c2c1nc(N(C)C)n2C` [Example 82, 1-(4-chlorobenzyl)-8-(dimethylamino)-7-methyl-3-propyl-3,7-dihydro-1H-purine-2,6-dione], the EC50 worked out at 5.6 µM. As to `CCCn1c(=O)n(Cc2ccc(Cl)cc2)c(=O)c2c1nc(N1CCC1)n2C` [Example 83, 8-azetidin-1-yl-1-(4-chlorobenzyl)-7-methyl-3-propyl-3,7-dihydro-1H-purine-2,6-dione], the EC50 is 7.8 µM. For the compound `CCCn1c(=O)n(Cc2ccc(Cl)cc2)c(=O)c2c1nc(N1CCC(OC)CC1)n2C` [Example 84, 1-(4-chlorobenzyl)-8-(4-methoxypiperidin-1-yl)-7-methyl-3-propyl-3,7-dihydro-1H-purine-2,6-dione], the half-maximal effective concentration (EC50) stood at 5.1 µM. The value for `CCCn1c(=O)n(Cc2ccc(Cl)cc2)c(=O)c2c1nc(N1CCCCC1)n2C` [Example 85, 1-(4-chlorobenzyl)-7-methyl-8-piperidin-1-yl-3-propyl-3,7-dihydro-1H-purine-2,6-dione] was 1.9 µM; that for `CCCn1c(=O)n(Cc2ccc(Cl)cc2)c(=O)c2c1nc(N1CCCC1)n2C` [Example 86, 1-(4-chlorobenzyl)-7-methyl-3-propyl-8-pyrrolidin-1-yl-3,7-dihydro-1H-purine-2,6-dione] was 3.6 µM. As to `CCCn1c(=O)n(Cc2ccc(Cl)cc2)c(=O)c2c1nc(N1CCN(C)CC1)n2C` [Example 87, 1-(4-chlorobenzyl)-7-methyl-8-(4-methylpiperazin-1-yl)-3-propyl-3,7-dihydro-1H-purine-2,6-dione], the EC50 is 15.6 µM. In the case of `CCCn1c(=O)n(Cc2ccc(Cl)cc2)c(=O)c2c1nc(N1CCSCC1)n2C` [Example 88, 1-(4-chlorobenzyl)-7-methyl-3-propyl-8-thiomorpholin-4-yl-3,7-dihydro-1H-purine-2,6-dione], the concentration giving a half-maximal response (EC50) worked out at 3.7 µM.
